Measured values published in patent US20230310428A1, “EGFR INHIBITOR AND PREPARATION METHOD AND USE THEREOF” (HONGYUN BIOTECH CO., LTD., priority 2020, published 2023).
Like-named read-outs stand apart in the source and are kept apart here.

How the values were obtained:
Test in all cases: Growth inhibitory activity of compounds on BaF3 cell lines stably transfected with kinase (MTS, 48 h)
Type in all cases: cell-based
[1] = target: T1, various mutants of kinase EGFR (BaF3 cell lines stably transfected with kinase) (Homo sapiens, UniProt P00533, L858R/T790M)
T1 construct: expressed in transfected cells; host or cells: BaF3
Description: (§1) The activity of compounds against various mutants of kinase EGFR was evaluated by their effect of inhibiting growth of BaF3 cell lines stably transfected with kinase. The specific test method was given as follows:
(§2) 1) Culture medium: DMEM (Dulbecco’s modified eagle medium) or RPMI 1640 (containing 10% fetal bovine serum, 100 µg/mL ampicillin, 100 µg/mL streptomycin).
(§3) 2) Reagent: MTS reaction solution (containing 2 mg/mL of MTS [3-(4,5-dimethylthiazol-2-yl)-5-(3-carboxymethoxyphenyl)-2-(4-sulfophenyl)-2H-tetrazoliu m, inner Salt]; 100 µg/mL of PES ([…])).
(§4) 3) Compound test: cells were incubated into a 96-well culture plate, the volume of cytosol was 90 µL, and then 10 µL of the compound at each gradient concentration was added. That is, the highest concentration was 10 µM, which was diluted stepwise by ⅓, and 8 concentration points were set in total; 0.1% DMSO (dimethyl sulfoxide) was contained in the system. The cell plate with uniformly mixed compound was cultured in a cell culture incubator (37° C.; 5% CO2) for 48 h, then 20 µL of MTS reaction solution was added, uniformly mixed and incubated in the cell culture incubator (37° C.; 5% CO2) for 1-4 h. OD values at 490 nm were measured by a microplate reader (VARIOSKAN FLASH, Thermo). Two parallels were set in each group of experiments, with 0.1% (a final concentration) DMSO as a negative control, and a culture medium without cells and compounds as a blank control. The cell growth inhibition rate was calculated by the following formula: […]
(§5) 4) IC50 calculation: The semi-inhibitory concentration of the compounds acting on cells was calculated using GradPad Prism 5 software according to the measured cell growth inhibition rate.

[2] = target: T2, various mutants of kinase EGFR (BaF3 cell lines stably transfected with kinase) (Homo sapiens, UniProt P00533, T790M, form not given)
T2 construct: other: BaF3 cells stably transfected with EGFR Δ19Del/T790M; MTS, 48 h; other: BaF3 cell line stably transfected with EGFR Δ19Del/T790M; MTS, 48
T2 sequence (P00533 with tags, fused parts or gaps DEL746-750/T790M, form open): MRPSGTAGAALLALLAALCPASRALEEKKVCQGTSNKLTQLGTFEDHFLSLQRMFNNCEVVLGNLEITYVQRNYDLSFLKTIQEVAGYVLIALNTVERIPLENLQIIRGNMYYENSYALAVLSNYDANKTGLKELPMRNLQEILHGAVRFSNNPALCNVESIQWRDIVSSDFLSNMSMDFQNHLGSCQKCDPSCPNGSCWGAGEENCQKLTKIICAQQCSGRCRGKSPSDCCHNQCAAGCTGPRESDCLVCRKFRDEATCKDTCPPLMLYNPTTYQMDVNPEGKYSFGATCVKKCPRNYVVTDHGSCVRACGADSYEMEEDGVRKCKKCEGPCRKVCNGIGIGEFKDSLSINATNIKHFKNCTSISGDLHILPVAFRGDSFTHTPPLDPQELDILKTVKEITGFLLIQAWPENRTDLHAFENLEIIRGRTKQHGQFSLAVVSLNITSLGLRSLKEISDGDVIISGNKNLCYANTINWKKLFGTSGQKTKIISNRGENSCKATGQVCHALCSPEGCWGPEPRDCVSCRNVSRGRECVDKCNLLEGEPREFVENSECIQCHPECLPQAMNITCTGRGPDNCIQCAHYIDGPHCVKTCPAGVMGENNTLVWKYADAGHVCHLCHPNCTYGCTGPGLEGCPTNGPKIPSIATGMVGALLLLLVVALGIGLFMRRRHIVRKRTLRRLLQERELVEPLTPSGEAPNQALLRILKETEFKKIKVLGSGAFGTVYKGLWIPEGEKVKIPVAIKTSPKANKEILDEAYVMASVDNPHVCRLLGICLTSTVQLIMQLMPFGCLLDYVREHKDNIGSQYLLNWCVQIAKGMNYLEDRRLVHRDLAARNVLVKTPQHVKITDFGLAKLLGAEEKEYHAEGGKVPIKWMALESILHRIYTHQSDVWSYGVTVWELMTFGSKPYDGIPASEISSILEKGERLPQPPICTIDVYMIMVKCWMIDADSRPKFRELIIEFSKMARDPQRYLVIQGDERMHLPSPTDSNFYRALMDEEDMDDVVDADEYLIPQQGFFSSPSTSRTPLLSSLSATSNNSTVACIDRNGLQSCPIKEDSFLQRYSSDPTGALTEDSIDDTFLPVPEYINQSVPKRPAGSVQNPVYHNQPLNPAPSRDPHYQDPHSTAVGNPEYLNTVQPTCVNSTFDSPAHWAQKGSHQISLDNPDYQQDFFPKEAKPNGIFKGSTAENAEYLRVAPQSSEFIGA
Description: as §1, §2, §3, §4, §5

[3] = target: T3, various mutants of kinase EGFR (BaF3 cell lines stably transfected with kinase) (Homo sapiens, UniProt P00533, C797S/L858R/T790M)
T3 construct: expressed in transfected cells; host or cells: BaF3
T3 sequence (P00533 25-1210 T790M/C797S/L858R): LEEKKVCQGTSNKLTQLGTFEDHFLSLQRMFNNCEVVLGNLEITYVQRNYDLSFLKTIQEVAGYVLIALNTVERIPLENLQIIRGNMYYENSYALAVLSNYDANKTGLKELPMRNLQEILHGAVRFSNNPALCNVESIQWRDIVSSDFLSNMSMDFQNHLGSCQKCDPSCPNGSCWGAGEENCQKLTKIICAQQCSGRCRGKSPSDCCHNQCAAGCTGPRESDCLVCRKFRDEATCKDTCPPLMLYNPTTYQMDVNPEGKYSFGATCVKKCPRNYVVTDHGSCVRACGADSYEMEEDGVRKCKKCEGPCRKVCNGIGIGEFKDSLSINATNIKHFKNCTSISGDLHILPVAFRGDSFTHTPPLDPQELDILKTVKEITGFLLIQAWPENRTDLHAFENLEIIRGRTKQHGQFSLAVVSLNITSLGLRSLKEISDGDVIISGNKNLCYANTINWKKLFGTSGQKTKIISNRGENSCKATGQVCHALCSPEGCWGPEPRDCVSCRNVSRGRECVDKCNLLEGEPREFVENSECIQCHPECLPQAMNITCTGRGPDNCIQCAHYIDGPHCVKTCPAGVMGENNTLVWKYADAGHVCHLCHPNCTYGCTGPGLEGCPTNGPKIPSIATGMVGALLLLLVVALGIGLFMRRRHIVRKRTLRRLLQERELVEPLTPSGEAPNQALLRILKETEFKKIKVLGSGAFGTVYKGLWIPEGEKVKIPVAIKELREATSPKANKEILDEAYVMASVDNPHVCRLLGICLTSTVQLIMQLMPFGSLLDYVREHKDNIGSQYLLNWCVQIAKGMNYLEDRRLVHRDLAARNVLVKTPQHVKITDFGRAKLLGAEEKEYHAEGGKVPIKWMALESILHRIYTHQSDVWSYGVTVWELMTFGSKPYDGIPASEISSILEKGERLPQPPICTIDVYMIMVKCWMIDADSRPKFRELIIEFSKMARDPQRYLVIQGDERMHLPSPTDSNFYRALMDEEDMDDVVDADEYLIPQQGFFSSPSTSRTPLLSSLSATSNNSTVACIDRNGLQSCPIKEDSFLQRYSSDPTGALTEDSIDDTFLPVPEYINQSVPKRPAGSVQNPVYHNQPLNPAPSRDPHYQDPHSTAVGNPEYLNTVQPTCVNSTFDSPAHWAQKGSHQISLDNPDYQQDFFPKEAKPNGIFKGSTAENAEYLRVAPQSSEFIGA
Description: as §1, §2, §3, §4, §5

[4] = target: T4, various mutants of kinase EGFR (BaF3 cell lines stably transfected with kinase) (Homo sapiens, UniProt P00533, T790M/C797S, form not given)
T4 construct: other: BaF3 cells stably transfected with EGFR Δ19Del/T790M/C797S; MTS, 48; other: BaF3 cell line stably transfected with EGFR Δ19Del/T790M/C7
Description: as §1, §2, §3, §4, §5

[5] = target: T5, various mutants of kinase EGFR (BaF3 cell lines stably transfected with kinase) (Homo sapiens, UniProt P00533)
T5 construct: other: BaF3 cells stably transfected with EGFR Δ19Del; MTS, 48 h; other: BaF3 cell line stably transfected with EGFR Δ19Del
T5 sequence (P00533 with tags, fused parts or gaps DEL746-750): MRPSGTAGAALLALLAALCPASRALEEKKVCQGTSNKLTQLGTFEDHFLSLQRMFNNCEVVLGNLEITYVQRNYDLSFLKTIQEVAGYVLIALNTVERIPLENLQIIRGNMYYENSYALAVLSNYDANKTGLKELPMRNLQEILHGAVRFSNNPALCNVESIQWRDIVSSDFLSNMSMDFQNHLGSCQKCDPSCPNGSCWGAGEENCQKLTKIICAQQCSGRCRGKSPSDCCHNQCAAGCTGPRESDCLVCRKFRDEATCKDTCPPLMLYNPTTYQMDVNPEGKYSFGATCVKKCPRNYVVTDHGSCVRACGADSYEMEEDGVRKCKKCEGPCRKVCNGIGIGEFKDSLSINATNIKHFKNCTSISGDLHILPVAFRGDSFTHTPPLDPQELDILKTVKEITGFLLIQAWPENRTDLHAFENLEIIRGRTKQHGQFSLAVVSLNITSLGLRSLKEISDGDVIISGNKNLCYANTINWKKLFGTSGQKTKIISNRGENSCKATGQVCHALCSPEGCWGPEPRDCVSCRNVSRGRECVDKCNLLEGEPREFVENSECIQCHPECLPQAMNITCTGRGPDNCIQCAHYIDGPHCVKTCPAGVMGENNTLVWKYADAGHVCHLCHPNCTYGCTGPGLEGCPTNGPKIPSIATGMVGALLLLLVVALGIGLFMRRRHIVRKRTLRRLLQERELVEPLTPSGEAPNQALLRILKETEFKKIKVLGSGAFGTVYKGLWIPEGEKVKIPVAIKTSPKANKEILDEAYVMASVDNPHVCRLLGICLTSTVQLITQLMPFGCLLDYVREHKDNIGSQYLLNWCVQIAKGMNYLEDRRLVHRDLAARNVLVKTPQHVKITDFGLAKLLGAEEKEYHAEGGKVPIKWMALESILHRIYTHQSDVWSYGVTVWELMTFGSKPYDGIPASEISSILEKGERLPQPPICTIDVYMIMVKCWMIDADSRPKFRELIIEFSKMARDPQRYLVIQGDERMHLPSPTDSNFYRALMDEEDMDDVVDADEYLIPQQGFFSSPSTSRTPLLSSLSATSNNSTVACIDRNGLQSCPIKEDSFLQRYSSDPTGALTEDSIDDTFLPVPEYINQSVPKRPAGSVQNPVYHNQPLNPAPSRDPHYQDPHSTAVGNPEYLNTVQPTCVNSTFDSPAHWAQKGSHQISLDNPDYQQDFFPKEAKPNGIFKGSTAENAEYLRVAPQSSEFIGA
Description: as §1, §2, §3, §4, §5

[6] = target: T6, various mutants of kinase EGFR (BaF3 cell lines stably transfected with kinase) (Homo sapiens, UniProt P00533, L858R)
T6 construct: expressed in transfected cells; host or cells: BaF3
T6 sequence (P00533 25-1210 L858R): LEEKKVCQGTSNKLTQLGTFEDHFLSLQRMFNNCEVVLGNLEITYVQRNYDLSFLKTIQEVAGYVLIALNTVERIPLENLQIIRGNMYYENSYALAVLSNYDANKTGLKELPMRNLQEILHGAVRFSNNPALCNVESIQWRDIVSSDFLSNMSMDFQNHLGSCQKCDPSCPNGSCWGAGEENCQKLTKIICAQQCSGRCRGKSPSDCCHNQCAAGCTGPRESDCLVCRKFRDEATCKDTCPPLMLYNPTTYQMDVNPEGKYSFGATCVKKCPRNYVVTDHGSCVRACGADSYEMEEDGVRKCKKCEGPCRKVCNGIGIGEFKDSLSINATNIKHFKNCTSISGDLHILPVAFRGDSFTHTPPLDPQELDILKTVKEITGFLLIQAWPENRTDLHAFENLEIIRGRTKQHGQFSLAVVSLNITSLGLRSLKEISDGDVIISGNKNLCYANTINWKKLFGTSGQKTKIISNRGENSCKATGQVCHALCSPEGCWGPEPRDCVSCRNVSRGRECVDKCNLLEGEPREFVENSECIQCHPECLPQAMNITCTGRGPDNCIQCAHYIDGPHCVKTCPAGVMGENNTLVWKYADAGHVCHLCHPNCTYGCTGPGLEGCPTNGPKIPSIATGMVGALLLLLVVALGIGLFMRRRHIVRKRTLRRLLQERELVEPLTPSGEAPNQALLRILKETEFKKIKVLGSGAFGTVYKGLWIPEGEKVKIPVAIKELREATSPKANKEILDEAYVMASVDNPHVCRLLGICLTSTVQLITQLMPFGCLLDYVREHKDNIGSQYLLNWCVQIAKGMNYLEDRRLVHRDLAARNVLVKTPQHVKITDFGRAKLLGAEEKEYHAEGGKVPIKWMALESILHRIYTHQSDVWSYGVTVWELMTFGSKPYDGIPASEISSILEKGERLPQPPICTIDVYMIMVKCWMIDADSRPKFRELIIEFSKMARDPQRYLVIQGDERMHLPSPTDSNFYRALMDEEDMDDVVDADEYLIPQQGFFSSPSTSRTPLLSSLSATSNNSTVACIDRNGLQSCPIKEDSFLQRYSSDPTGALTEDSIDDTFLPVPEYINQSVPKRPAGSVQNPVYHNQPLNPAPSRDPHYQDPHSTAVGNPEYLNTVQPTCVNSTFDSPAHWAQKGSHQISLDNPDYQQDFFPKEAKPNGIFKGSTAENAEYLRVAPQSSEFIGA
Description: as §1, §2, §3, §4, §5

[7] = BaF3 cells stably transfected with EGFR L858R/T790M, read-out: IC50, growth inhibition, L858R/T790M
[8] = BaF3 cells stably transfected with EGFR Δ19Del/T790M, read-out: IC50, growth inhibition, Δ19Del/T790M
[9] = BaF3 cells stably transfected with EGFR L858R/T790M/C797S, read-out: IC50, growth inhibition, L858R/T790M/C797S
[10] = BaF3 cells stably transfected with EGFR Δ19Del/T790M/C797S, read-out: IC50, growth inhibition, Δ19Del/T790M/C797S
[11] = BaF3 cells stably transfected with EGFR Δ19Del, read-out: IC50, growth inhibition, Δ19Del
[12] = BaF3 cells stably transfected with EGFR L858R, read-out: IC50, growth inhibition, L858R
[13] = BaF3 cell line stably transfected with EGFR L858R/T790M, read-out: L858R/ T790M growth inhibitory activity IC50
[14] = BaF3 cell line stably transfected with EGFR Δ19Del/T790M, read-out: Δ19Del/ T790M growth inhibitory activity IC50
[15] = BaF3 cell line stably transfected with EGFR L858R/T790M/C797S, read-out: L858R/T790M/ C797S growth inhibitory activity IC50
[16] = BaF3 cell line stably transfected with EGFR Δ19Del/T790M/C797S, read-out: Δ19Del/T790M/ C797S growth inhibitory activity IC50
[17] = BaF3 cell line stably transfected with EGFR Δ19Del, read-out: Δ19Del growth inhibitory activity IC50
[18] = BaF3 cell line stably transfected with EGFR L858R, read-out: L858R growth inhibitory activity IC50

Structure (SMILES) | IC50 [1, 7] [nM] | IC50 [2, 8] [nM] | IC50 [3, 9] [nM] | IC50 [4, 10] [nM] | IC50 [5, 11] [nM] | IC50 [6, 12] [nM] | IC50 [1, 13] [nM] | IC50 [2, 14] [nM] | IC50 [3, 15] [nM] | IC50 [4, 16] [nM] | IC50 [5, 17] [nM] | IC50 [6, 18] [nM]
COc1cc(N2CCC(N3CCN(C)CC3)CC2)c(CC2CC2)cc1Nc1ncc(F)c(Nc2ccc3nccnc3c2N(C)S(C)(=O)=O)n1 [Compound I-181] | ≤ 50 | 50 to 500 | 50 to 500 | ≤ 50 | ≤ 50 | ≤ 50 | – | – | – | – | – | –
COc1cc(N2CCC(N3CCN(C)CC3)CC2)ccc1Nc1ncc(Br)c(Nc2ccc3nccnc3c2N(C)S(C)(=O)=O)n1 [Compound I-1] | ≤ 50 | ≤ 50 | ≤ 50 | ≤ 50 | ≤ 50 | ≤ 50 | – | – | – | – | – | –
CCc1cc(Nc2ncc(C(C)C)c(Nc3ccc4nccnc4c3N(C)S(C)(=O)=O)n2)c(OC)cc1N1CCC(N2CCN(C)CC2)CC1 [Compound I-327] | – | – | – | – | – | – | ≤ 50 | ≤ 50 | 50 to 500 | 50 to 500 | ≤ 50 | ≤ 50
CCN(c1c(Nc2nc(Nc3cc(C)c(N4CCN(C)CC4)cc3OC)ncc2Cl)ccc2nccnc12)S(C)(=O)=O [Compound I-231] | ≤ 50 | 50 to 500 | ≤ 50 | ≤ 50 | ≤ 50 | ≤ 50 | – | – | – | – | – | –
COc1cc(N2CCC(N3CCN(C)CC3)CC2)c(CC2CC2)cc1Nc1ncc(Br)c(Nc2ccc3nccnc3c2N(C)S(=O)(=O)C(F)(F)F)n1 [Compound I-259] | 500 to 2500 | 500 to 2500 | 50 to 500 | 50 to 500 | 500 to 2500 | 500 to 2500 | – | – | – | – | – | –
CCc1cc(Nc2ncc(Cl)c(Nc3ccc4nccnc4c3N(C)S(=O)(=O)CC)n2)c(OC)cc1N1CCN(C)CC1 [Compound I-236] | ≤ 50 | ≤ 50 | ≤ 50 | ≤ 50 | ≤ 50 | ≤ 50 | – | – | – | – | – | –
CCN(c1c(Nc2nc(Nc3ccc(N4CCC(N5CCN(C)CC5)CC4)nc3OC)ncc2Cl)ccc2nccnc12)S(C)(=O)=O [Compound I-225] | 50 to 500 | 50 to 500 | 50 to 500 | ≤ 50 | 50 to 500 | 50 to 500 | – | – | – | – | – | –
CCc1cc(Nc2ncc(Br)c(Nc3ccc4nccnc4c3N(CC)S(C)(=O)=O)n2)c(OC)nc1N1CCC(N2CCN(C)CC2)CC1 [Compound I-212] | ≤ 50 | ≤ 50 | ≤ 50 | ≤ 50 | 50 to 500 | 50 to 500 | – | – | – | – | – | –
C=Cc1cc(Nc2ncc(C3CC3)c(Nc3ccc4nccnc4c3N(C)S(C)(=O)=O)n2)c(OC(F)(F)F)cc1N1CCC(N2CCN(C)CC2)CC1 [Compound I-271] | 50 to 500 | 50 to 500 | ≤ 50 | ≤ 50 | 50 to 500 | 50 to 500 | – | – | – | – | – | –
CN1CCc2cc(F)c(Nc3ncc(Br)c(Nc4ccc5nccnc5c4N(C)S(C)(=O)=O)n3)cc2C1 [Compound I-87] | 50 to 500 | 50 to 500 | ≤ 50 | ≤ 50 | ≤ 50 | ≤ 50 | – | – | – | – | – | –
CCc1cc(Nc2ncc(Br)c(Nc3ccc4nccnc4c3N(C)S(C)(=O)=O)n2)ccc1N1CCC(N2CCN(C)CC2)CC1 [Compound I-286] | ≤ 50 | ≤ 50 | ≤ 50 | ≤ 50 | ≤ 50 | ≤ 50 | – | – | – | – | – | –
Cc1ccc(Nc2ncc(Br)c(Nc3ccc4nccnc4c3N(C)S(C)(=O)=O)n2)cn1 [Compound I-63] | ≤ 50 | ≤ 50 | 50 to 500 | 50 to 500 | ≤ 50 | 50 to 500 | – | – | – | – | – | –
COc1cc(C(=O)N2CCC(N3CCN(C)CC3)CC2)ccc1Nc1ncc(Br)c(Nc2ccc3nccnc3c2N(C)S(C)(=O)=O)n1 [Compound I-48] | 50 to 500 | 50 to 500 | ≤ 50 | ≤ 50 | 50 to 500 | 50 to 500 | – | – | – | – | – | –
CCOc1cnc(Nc2cc(CC)c(N3CCC(N4CCN(C)CC4)CC3)cc2OC)nc1Nc1ccc2nccnc2c1N(C)S(C)(=O)=O [Compound I-337] | – | – | – | – | – | – | 50 to 500 | ≤ 50 | 50 to 500 | 50 to 500 | ≤ 50 | 50 to 500
CCc1cc(Nc2ncc(Br)c(Nc3ccc4nccnc4c3N(C)S(=O)(=O)C3CC3)n2)c(OC)cc1N1CCC(N(C)C)C1 (stereo not drawn) [Compound I-108] | ≤ 50 | ≤ 50 | ≤ 50 | ≤ 50 | 50 to 500 | 50 to 500 | – | – | – | – | – | –
CCc1cc(Nc2ncc(Cl)c(Nc3ccc4nccnc4c3N(C)S(=O)(=O)C3CC3)n2)c(OC)cc1N1CCC(N(C)C)C1 (stereo not drawn) [Compound I-123] | ≤ 50 | 50 to 500 | 50 to 500 | ≤ 50 | 50 to 500 | 50 to 500 | – | – | – | – | – | –

Results, then the compound that gave them:

IC50 [1, 7] [nM] | IC50 [2, 8] [nM] | IC50 [3, 9] [nM] | IC50 [4, 10] [nM] | IC50 [5, 11] [nM] | IC50 [6, 12] [nM] | IC50 [1, 13] [nM] | IC50 [2, 14] [nM] | IC50 [3, 15] [nM] | IC50 [4, 16] [nM] | IC50 [5, 17] [nM] | IC50 [6, 18] [nM] | Structure (SMILES)
– | – | – | – | – | – | ≤ 50 | ≤ 50 | ≤ 50 | ≤ 50 | ≤ 50 | ≤ 50 | CCc1cc(Nc2ncc(Br)c(Nc3ccc4nccnc4c3NS(C)(=O)=O)n2)c(OC)cc1N1CCC(N2CCN(C)CC2)CC1 [Compound I-403]
– | – | – | – | – | – | ≤ 50 | ≤ 50 | ≤ 50 | 50 to 500 | ≤ 50 | ≤ 50 | CCc1cc(Nc2nccc(Nc3ccc4nccnc4c3N(C)S(C)(=O)=O)n2)c(OC)cc1N1CCC(N2CCN(C)CC2)CC1 [Compound I-341]
– | – | – | – | – | – | 50 to 500 | 50 to 500 | ≤ 50 | 50 to 500 | 50 to 500 | 50 to 500 | CCn1ccc(Nc2ncc(Br)c(Nc3ccc4nccnc4c3N(C)S(C)(=O)=O)n2)n1 [Compound I-383]
– | – | – | – | – | – | 50 to 500 | 50 to 500 | 50 to 500 | 50 to 500 | 50 to 500 | 50 to 500 | CCc1cc(Nc2nc(Nc3ccc4nccnc4c3N(C)S(C)(=O)=O)c3sccc3n2)c(OC)cc1N1CCC(N(C)C)C1 (stereo not drawn) [II-1-17]
– | – | – | – | – | – | ≤ 50 | 50 to 500 | ≤ 50 | ≤ 50 | 50 to 500 | 50 to 500 | COc1ccc(N2CCC(O)CC2)cc1Nc1ncc(Br)c(Nc2ccc3nccnc3c2N(C)S(=O)(=O)C(C)C)n1 [Compound I-376]
– | – | – | – | – | – | ≤ 50 | ≤ 50 | ≤ 50 | 50 to 500 | 50 to 500 | 50 to 500 | CN(c1c(Nc2nc(Nc3cccc(N4CCC(N5CCCC5)CC4)c3)ncc2Br)ccc2nccnc12)S(C)(=O)=O [Compound I-381]
– | – | – | – | – | – | 50 to 500 | 50 to 500 | 50 to 500 | ≤ 50 | 500 to 2500 | 500 to 2500 | CCc1cc(Nc2nc(Nc3ccc4nccnc4c3N(C)S(C)(=O)=O)c3cc[nH]c3n2)c(OC)cc1N1CCC(N(C)C)C1 (stereo not drawn) [II-2-17]
– | – | – | – | – | – | ≤ 50 | 50 to 500 | 50 to 500 | 50 to 500 | 50 to 500 | 50 to 500 | COc1ccc(N2CCNCC2)cc1Nc1ncc(Br)c(Nc2ccc3nccnc3c2N(C)S(C)(=O)=O)n1 [Compound I-352]
